From US20220089540A1 (Board of Trustees of Michigan State University, priority 2019, published 2022)
Where “and” joins values, the source holds several entries; their conditions need not be identical. Identical values can stand only once. Like-named read-outs stand apart in the source and are kept apart here.

Assays:
[1] = system: inducible nitric oxide synthase (iNOS); test: iNOS suppression / NO assay in LPS-stimulated macrophages or RAW264.7 cells (Griess reaction); format: cell-based, mouse; conditions: Mus musculus; for activity at 0.3 µM: RAW264.7, 24 h; for IC50: RAW264.7, Table 7
Procedure: Macrophages or RAW264.7 like-cells were treated with various concentrations of rexinoids and stimulated with lipopolysaccaride (LPS) to activate inducible nitric oxide synthase (iNOS) to produce nitric oxide. This in vitro iNOS assay was rapid, reproducible, quantitative and predictive. Nitric oxide is implicated in the apoptosis of cancer cells via regulation of RXRs. There is a tight correlation between the % reduction of iNOS and efficacy in preclinical lung cancer models. Lower numbers indicate higher efficacy.
RAW264.7 cells were incubated with 300 nM rexinoids and stimulated with 1-2 ng/ml lipopolysaccaride (LPS) for 24 hours to activate inducible nitric oxide synthase (iNOS) to produce nitric oxide. Nitric oxide released into the media was measured by the Griess reaction.
Also, for Table 6, the iNOS suppression is the percent of the LPS-stimulated control where the compounds were measured at 100 nM or 300 nM.
Macrophages or RAW264.7 cells were treated with various concentrations of rexinoids listed in Table 7 and stimulated with lipopolysaccaride (LPS) to activate inducible nitric oxide synthase (iNOS) to produce nitric oxide. Nitric oxide (NO) is implicated in the apoptosis of cancer cells via regulation of RXRs. There is a tight correlation between the % reduction of iNOS and efficacy in preclinical lung cancer models. The in vitro iNOS assay is rapid, reproducible, quantitative and predictive, as NO production is measured in culture medium using the Griess reaction. Values are either presented as % inhibition or IC50 values.

[2] = system: SREBP; test: SREBP induction in human liver (HepG2) cells, RT-PCR; format: cell-based; conditions: for SREBP activation: fold induction compared to DMSO, several values per cell, Table 6; for fold induction at 0.3 µM: human, HepG2 cells (human liver carcinoma), 300 nM, HepG2, Table 5, read-out: Safety SREBP mRNA fold induction at 300 nM
Procedure: The SREBP transcription factor is involved in triglyceride synthesis, and its activation correlates with increased triglycerides in vivo. […] Lower numbers indicate better safety. […] Lower numbers indicate better safety. Also, for Table 6, SREBP activation was measured as fold induction compared to DMSO, where a lower value indicates the compound is an improvement over a control.

[3] = at 300 nM, percent of the LPS-stimulated control, lower is better, Table 6, read-out: iNOS suppression

Q: Which activity at 0.3 µM [1, 3] does the source give for `C=C(c1ccc(C(=O)O)cc1)c1cc2c(cc1C)CCCC2(C)C` here?
A: Its activity at 0.3 µM is 55%.

Q: And the SREBP activation [2]?
A: The SREBP activation was 2.0 fold induction.

Q: With `CCCN(c1cc(C(C)(C)C)cc(C(C)(C)C)c1)c1ccc(C(=O)O)cn1` [drawing 77] as the compound, how does the fold induction at 0.3 µM [2] read?
A: Its fold induction at 0.3 µM is 2.15 ± 0.7.

Q: How did the fold induction at 0.3 µM [2] turn out when `CC(C)N(c1cc(C(C)(C)C)cc(C(C)(C)C)c1)c1ccc(C(=O)O)cn1` was run?
A: Its fold induction at 0.3 µM is 1.65 ± 0.1.

Q: How did the IC50 [1] turn out when `CC(C)CN(c1ncc(C(=O)O)cn1)c1cc(C(C)(C)C)cc2c1CCC2(C)C` was run?
A: The IC50 was 300 to 600 nM.

Q: `CC(C)N(c1cc(C(C)(C)C)cc(C(C)(C)C)c1)c1ncc(C(=O)O)cn1` was tested. Which fold induction at 0.3 µM [2] did it give?
A: Its fold induction at 0.3 µM is 2.46 ± 0.8.

Q: How did the SREBP activation [2] turn out when `CC(C)CN(c1cc(C(C)(C)C)cc(C(C)(C)C)c1)c1ccc(C(=O)O)cn1` [drawing 122] was run?
A: The SREBP activation was 1.7 fold induction and 2.0 fold induction.

Q: `Cc1ccc(N(c2ccc(C(=O)O)cn2)C(C)C)cc1C(F)(F)F` was tested. Which IC50 [1] did it give?
A: The IC50 was 300 to 600 nM.

Q: How did the IC50 [1] turn out when `Cc1cc(N(CC(C)C)c2ccc(C(=O)O)cn2)cc(C(F)(F)F)c1` was run?
A: The IC50 was 300 to 600 nM.

Q: What does the source list for `CCOc1c(N(CC)c2ccc(C(=O)O)cc2)cc(C(C)(C)C)cc1C(C)(C)C` [drawing 107]?
A: activity at 0.3 µM [1, 3]: 60%; SREBP activation [2]: 2.4 fold induction

Q: How did the IC50 [1] turn out when `CC(C)CN(c1ccc(C(=O)O)cn1)c1cc(C(C)(C)C)cc2c1CCC2(C)C` was run?
A: The IC50 was 100 to 200 nM.

Q: How did the fold induction at 0.3 µM [2] turn out when `C=C(c1ccc(C(=O)O)cc1)c1cc(C(C)C)c(OC(C)C)cc1C` [drawing 74] was run?
A: Its fold induction at 0.3 µM is 1.08 ± 0.1.

Q: Which activity at 0.3 µM ([1]; read-out: iNOS (300 nM)) does the source give for `C=C(c1ccc(C(=O)O)cc1)c1cc(C(C)C)c(OC(C)C)cc1C` [Compound 1, 4-{1-[2-methyl-5-(propan-2-yl)-4-(propan-2-yloxy)phenyl]ethenyl}benzoic Acid] here?
A: Its activity at 0.3 µM is 41%.

Q: With `CCCN(c1ccc(C)c(C(F)(F)F)c1)c1ccc(C(=O)O)cn1` [6-{[4-methyl-3-(trifluoromethyl)phenyl](propyl)amino}pyridine-3-carboxylic Acid] as the compound, how does the IC50 [1] read?
A: Its IC50 is 300 to 600 nM.

Q: With `C=C(c1ccc(C(=O)O)cc1)c1ccc(OCC(C)C)c(C(C)C)c1` [Compound 5, 4-{1-[3-iso-propyl-4-(2-methylpropoxy)phenyl]ethenyl}benzoic Acid] as the compound, how does the activity at 0.3 µM ([1]; read-out: iNOS (300 nM)) read?
A: The activity at 0.3 µM was 65%.

Q: Which IC50 [1] does the source give for `CC(C)N(c1ccc(C(=O)O)cn1)c1cc(C(C)(C)C)cc2c1CCC2(C)C` [6-[(6-tert-butyl-1,1-dimethyl-2,3-dihydro-1H-inden-4-yl)(propan-2-yl)amino]pyridine-3-carboxylic Acid] here?
A: The IC50 was 100 to 200 nM.

Q: How did the fold induction at 0.3 µM [2] turn out when `C=C(c1ccc(C(=O)O)cc1)c1cc(C(C)(C)C)cc(C(C)(C)C)c1` [drawing 76] was run?
A: Its fold induction at 0.3 µM is 1.12 ± 0.5.

Q: `C=C(c1ccc(C(=O)O)cc1)c1cc(C(C)(C)C)ccc1OCC` [Compound 4, 4-[1-(5-tert-butyl-2-ethoxyphenyl)ethenyl]benzoic Acid] was tested. Which activity at 0.3 µM ([1]; read-out: iNOS (300 nM)) did it give?
A: Its activity at 0.3 µM is 65%.

Q: `CCN(c1ccc(C(=O)O)cc1)c1cc(C(C)C)c(OCC(C)C)cc1C` [drawing 80] was tested. Which fold induction at 0.3 µM [2] did it give?
A: Its fold induction at 0.3 µM is 1.45 ± 0.2.

Q: With `CCCN(c1ccc(C(=O)O)cn1)c1cc(C(C)(C)C)ccc1C` as the compound, how does the fold induction at 0.3 µM [2] read?
A: Its fold induction at 0.3 µM is 1.8 ± 0.2.

Q: How did the activity at 0.3 µM [1, 3] turn out when `CCN(c1ccc(C(=O)O)cn1)c1cc(C(C)(C)C)ccc1C` [drawing 112] was run?
A: The activity at 0.3 µM was 60%.

Q: And the SREBP activation [2]?
A: Its SREBP activation is 2.7 fold induction and 2.2 fold induction.

Q: Which fold induction at 0.3 µM [2] does the source give for `CCN(c1ccc(C(=O)O)cc1)c1cc(C(C)(C)C)cc(C(C)(C)C)c1` [drawing 64] here?
A: Its fold induction at 0.3 µM is 1.37 ± 0.3.

Q: Which fold induction at 0.3 µM [2] does the source give for `CC(C)(C)c1cc(N(CC2CC2)c2ncc(C(=O)O)cn2)cc(C(C)(C)C)c1` here?
A: The fold induction at 0.3 µM was 1.46 ± 0.2.

Q: `C=C(c1ccc(C(=O)O)cc1)c1cc(C(C)C)c(OCC(C)C)cc1C` [drawing 71] was tested. Which fold induction at 0.3 µM [2] did it give?
A: The fold induction at 0.3 µM was 1.67 ± 0.2.

Q: Which fold induction at 0.3 µM [2] does the source give for `CC(C)CN(c1cc(C(F)(F)F)cc(C(F)(F)F)c1)c1ccc(C(=O)O)cn1` here?
A: Its fold induction at 0.3 µM is 1 ± 0.03.

Q: `CCCCN(c1ncc(C(=O)O)cn1)c1cc(C(C)(C)C)cc2c1CCC2(C)C` was tested. Which IC50 [1] did it give?
A: The IC50 was 300 to 600 nM.

Q: With `CC(C)(C)c1cc(N(Cc2ccccc2)c2ccc(C(=O)O)cn2)cc(C(C)(C)C)c1` [drawing 195, 6-[benzyl(3,5-di-tert-butylphenyl)amino]pyridine-3-carboxylic Acid] as the compound, how does the IC50 [1] read?
A: Its IC50 is 300 to 600 nM.

Q: With `C=C(c1ccc(C(=O)O)cc1)c1cc(C(C)(C)C)ccc1OCC` [drawing 108] as the compound, how does the activity at 0.3 µM [1, 3] read?
A: The activity at 0.3 µM was 67%.

Q: What about the SREBP activation [2] of the same compound?
A: The SREBP activation was 2.1 fold induction.

Q: Which fold induction at 0.3 µM [2] does the source give for `CC(C)(C)c1cc(N(CC2CC2)c2ccc(C(=O)O)cn2)cc(C(C)(C)C)c1` [drawing 78] here?
A: Its fold induction at 0.3 µM is 2.48 ± 1.8.
